What is called IC50 is the point on the concentration scale where inhibition reaches its midpoint. The CC50 is the concentration giving 50% cytotoxicity. Low readings indicate greater toxicity to the cells, high ones lower toxicity to the cells.

From patent US20230416238A1, “N-[(1,3-BENZOXAZOL-2-YL)-HETEROCYCLE]AMIDE DERIVATIVES FOR THE TREATMENT AND PROPHYLAXIS OF HEPATITIS B VIRUS INFECTION” (Hoffmann-La Roche Inc., priority 2020, published 2023) come the findings set out here.

What all share (format): cell-based
The test system of one series is HBsAg. In words: PHH HBV natural infection assay, HBsAg (alphalisa). The settings on record: Hepatitis B virus, Hepatocyte, read-out: HBsAg IC50. In short, it runs like this:
(§1)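 Primary human hepatocytes infected with HBV at 200 GE/cell plus 4% PEG8000 for 24 h, then sandwich-cultured 72 h in medium with 1% DMSO. Compound applied twice at 72-h intervals; supernatant HBsAg and HBeAg quantified by AlphaLISA.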

The subject of a further series is HBeAg. The series can be described thus: PHH HBV natural infection assay, HBeAg (alphalisa). The settings on record: Hepatitis B virus, Hepatocyte, read-out: HBeAg IC50. An outline of the steps: as §1
Series [1] can be described thus: Cytotoxicity in PHH natural infection assay (Cell Counting Kit-8). The settings on record: HBV-infected primary human hepatocytes, CCK8. An outline of the steps:
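HBV-infected primary human hepatocytes (200 GE/cell, 4% PEG8000, 24 h), then sandwich-cultured 72 h. Cells dosed at varying concentrations for two 72-hour cycles, with medium refreshed. Cytotoxicity read by CCK-8 at end of treatment.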

`O=C(NC1CCC2(CC1)CCN(c1nc3cc(Cl)ccc3o1)CC2)c1ccnc(S(=O)(=O)C2CC2)c1` [Example 118, N-[3-(5-chloro-1,3-benzoxazol-2-yl)-3-azaspiro[5.5]undecan-9-yl]-2-cyclopropylsulfonyl-pyridine-4-carboxamide]: the figures for the IC50 in the series on HBsAg and in the series on HBeAg were 2.37 µM and 2.36 µM, respectively. The molecule further displayed a CC50 at 144 h in series [1] of more than 10 µM.
For the molecule `O=C(NC1CCC2(CC1)CCN(c1nc3cc(Cl)ccc3o1)CC2)c1ccnc(C(F)(F)F)c1` [Example 105, N-[3-(5-chloro-1,3-benzoxazol-2-yl)-3-azaspiro[5.5]undecan-9-yl]-2-(trifluoromethyl)pyridine-4-carboxamide], the IC50 in the series with HBsAg was found to be 1.12 µM; in the series on HBeAg, 1.03 µM. The CC50 at 144 h in series [1] came to 59 µM.
On the same counts, the results for `O=C(CC1CS(=O)(=O)C1)NC1CC2(C1)CN(c1nc3cc(Cl)ccc3o1)C2` (stereo not drawn) [Example 35, N-[2-(5-chloro-1,3-benzoxazol-2-yl)-2-azaspiro[3.3]heptan-6-yl]-2-(1,1-dioxothietan-3-yl)acetamide] are 2.36 µM, 2.22 µM and more than 100 µM.
As for `CS(=O)(=O)c1cncc(C(=O)NCC2CCN(c3nc4cc(Cl)ccc4o3)CC2)c1` [Example 9, N-[[1-(5-chloro-1,3-benzoxazol-2-yl)-4-piperidyl]methyl]-5-methylsulfonyl-pyridine-3-carboxamide], the IC50 with HBsAg was 1.5 µM; with HBeAg, 1.83 µM. In addition, the CC50 at 144 h in series [1] was more than 10 µM.
On the same counts, the results for `CN(C)C(=O)NC1CC2(C1)CN(c1nc3cc(Cl)ccc3o1)C2` [Example 23, 3-[2-(5-Chloro-1,3-benzoxazol-2-yl)-2-azaspiro[3.3]heptan-6-yl]-1,1-dimethyl-urea] are 7.63 µM, 6.62 µM and more than 100 µM.
Regarding `O=C(NC1CCC2(CC1)CCN(c1nc3cc(Cl)ccc3o1)CC2)C1CCOC1` (stereo not drawn) [Example 86, N-[3-(5-chloro-1,3-benzoxazol-2-yl)-3-azaspiro[5.5]undecan-9-yl]tetrahydrofuran-3-carboxamide], the figures for the IC50 with HBsAg and in the series on HBeAg were 2.89 µM and 2.8 µM, respectively. Also, in series [1], the CC50 at 144 h came to 82.7 µM.
`O=C(NC1CC2(C1)CN(c1nc3cc(Cl)ccc3o1)C2)c1ccc(S(=O)(=O)NC2CC(F)(F)C2)o1` [Example 60, N-[2-(5-chloro-1,3-benzoxazol-2-yl)-2-azaspiro[3.3]heptan-6-yl]-5-[(3,3-difluorocyclobutyl)sulfamoyl]furan-2-carboxamide]: the IC50 with HBsAg is 2.52 µM; with HBeAg, 2.55 µM. In series [1], this molecule displayed a CC50 at 144 h of more than 10 µM.
For `Cc1ccc(S(=O)(=O)N2CCC(C(=O)NCC3CCN(c4nc5cc(Cl)ccc5o4)CC3)C2)cc1` (stereo not drawn) [Example 14, N-[[1-(5-chloro-1,3-benzoxazol-2-yl)-4-piperidyl]methyl]-1-(p-tolylsulfonyl)pyrrolidine-3-carboxamide] the same measures were 3.82 µM, 4.16 µM and more than 10 µM.
Consider `O=C(CC1CCOC1)NC1CCC2(CC1)CCN(c1nc3cc(Cl)ccc3o1)CC2` (stereo not drawn) [Example 84, N-[3-(5-chloro-1,3-benzoxazol-2-yl)-3-azaspiro[5.5]undecan-9-yl]-2-tetrahydrofuran-3-yl-acetamide], for which the values for the IC50 with HBsAg and in the series on HBeAg were 2.02 µM and 1.37 µM, respectively. Further, the CC50 at 144 h in series [1] is 58.6 µM.
On the same counts, the results for `N=S(=O)(CC1CC1)c1ccc(C(=O)NC2CCC3(CC2)CCN(c2nc4cc(Cl)ccc4o2)CC3)o1` (stereo not drawn) [Example 119, N-[3-(5-chloro-1,3-benzoxazol-2-yl)-3-azaspiro[5.5]undecan-9-yl]-5-(cyclopropylmethylsulfonimidoyl)furan-2-carboxamide] are 1.92 µM, 1.36 µM and 85.8 µM.
On the same counts, the results for `O=C(NC1CC2CN(c3nc4cc(Cl)ccc4o3)CC2C1)c1ccc(C(F)(F)F)o1` (stereo not drawn) [Example 123, N-[2-(5-chloro-1,3-benzoxazol-2-yl)-3,3a,4,5,6,6a-hexahydro-1H-cyclopenta[c]pyrrol-5-yl]-5-(trifluoromethyl)furan-2-carboxamide] are 4.81 µM, 5.47 µM and more than 100 µM.
For `O=C(NCC1CCN(c2nc3cc(Cl)ccc3o2)CC1)c1ccnc(S(=O)(=O)C2CC2)c1` [Example 3, N-[[1-(5-chloro-1,3-benzoxazol-2-yl)-4-piperidyl]methyl]-2-cyclopropylsulfonyl-pyridine-4-carboxamide] the same measures were 7.84 µM, 6.38 µM and more than 10 µM.
As to `O=C(NC1CCC2(CC1)CCN(c1nc3cc(Cl)ccc3o1)CC2)C1COC1` [Example 85, N-[3-(5-chloro-1,3-benzoxazol-2-yl)-3-azaspiro[5.5]undecan-9-yl]oxetane-3-carboxamide], the IC50 with HBsAg was 8.75 µM; in the series with HBeAg, 6.13 µM. The molecule further registered a cytotoxic concentration (CC50) at 144 h in series [1] of 70.9 µM.
For `O=C(NC1CCC2(CC1)CCN(c1nc3cc(Cl)ccc3o1)CC2)[C@@H]1CCS(=O)(=O)C1` [Example 91, (3S)—N-[3-(5-chloro-1,3-benzoxazol-2-yl)-3-azaspiro[5.5]undecan-9-yl]-1,1-dioxo-thiolane-3-carboxamide] the same measures were 1.12 µM, 0.676 µM and 89.2 µM.
On the same counts, the results for `O=C(NC1CC2(C1)CN(c1nc3cc(Cl)ccc3o1)C2)c1ccnc(C(F)(F)F)c1` [Example 55, N-[2-(5-chloro-1,3-benzoxazol-2-yl)-2-azaspiro[3.3]heptan-6-yl]-2-(trifluoromethyl)pyridine-4-carboxamide] are 1.23 µM, 0.966 µM and 71.1 µM.
On the same counts, the results for `C[S@](=N)(=O)c1ccc(C(=O)NC2CC3(C2)CN(c2nc4cc(Cl)ccc4o2)C3)o1` [Example 47, N-[2-(5-chloro-1,3-benzoxazol-2-yl)-2-azaspiro[3.3]heptan-6-yl]-5-[(S)-methylsulfonimidoyl]furan-2-carboxamide] are 4.24 µM, 2.31 µM and more than 100 µM.
For `CC(C)COC(=O)NC1CC2(C1)CN(c1nc3cc(Cl)ccc3o1)C2` [Example 22, Isobutyl N-[2-(5-chloro-1,3-benzoxazol-2-yl)-2-azaspiro[3.3]heptan-6-yl]carbamate], the IC50 in the series with HBsAg came out at 5.87 µM; in the series on HBeAg, 4.82 µM. In addition, half-maximal cytotoxicity in series [1] (CC50 at 144 h) was put at 82.7 µM.
For `CS(=O)(=O)N1CCC(C(=O)NCC2CCN(c3nc4cc(Cl)ccc4o3)CC2)CC1` [Example 15, N-[[1-(5-chloro-1,3-benzoxazol-2-yl)-4-piperidyl]methyl]-1-methylsulfonyl-piperidine-4-carboxamide] the same measures were 3.97 µM, 3.64 µM and more than 10 µM.
For the molecule `CS(=O)(=O)c1cc(C(=O)NCC2CCN(c3nc4cc(Cl)ccc4o3)CC2)ccn1` [Example 5, N-[[1-(5-chloro-1,3-benzoxazol-2-yl)-4-piperidyl]methyl]-2-methylsulfonyl-pyridine-4-carboxamide], the IC50 in the series with HBsAg amounted to 4.68 µM; in the series with HBeAg, 4.93 µM. The molecule further returned a CC50 at 144 h in series [1] of more than 10 µM.
